This is an account of results in PubChem BioAssay (NCI).

Molecules are shown by their SMILES.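 Tested at 5 concentrations; 48 h exposure; 96-well plates; endpoints linearly interpolated, else capped at highest concentration. Here, GI50 denotes the concentration required for 50% inhibition of growth. TGI: total growth inhibition.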

Among the test systems are PC-3 prostate; OVCAR-3 ovarian; NCI/ADR-RES ovarian; CAKI-1 renal; MCF7 breast; HCT-15 colon; SF-268 CNS; NCI-H226 lung; NCI-H460 lung; RXF 393 renal.
What all share (experiment): NCI tumour cell line growth inhibition, 48 h

Regarding `S=C(Nc1ccc(Cl)cc1)Nc1ccc(Cl)cc1` (tested in a mixture with another compound), the GI50 in the experiment with PC-3 prostate was 1.71 µM; in the experiment with OVCAR-3 ovarian, 1.69 µM; in the experiment on NCI/ADR-RES ovarian, 2.54 µM; in the experiment on CAKI-1 renal it was 2.15 µM; with MCF7 breast, 2.89 µM; with HCT-15 colon, 2.59 µM. For the same molecule, the GI50 with SF-268 CNS was 3.2 µM; in the experiment on NCI-H226 lung, 2.33 µM; in the experiment on NCI-H460 lung it was 1.61 µM; with RXF 393 renal it was 2.13 µM. Besides, the TGI was found to be 6.59 µM in the experiment on PC-3 prostate; 4.48 µM in the experiment on OVCAR-3 ovarian; 13.9 µM in the experiment on NCI/ADR-RES ovarian; 7.08 µM in the experiment with CAKI-1 renal; 8.09 µM in the experiment on MCF7 breast; 11.4 µM with HCT-15 colon. For the same molecule, the TGI is 15.8 µM with SF-268 CNS, 7.76 µM with NCI-H226 lung, 4.46 µM in the experiment on NCI-H460 lung and 5.29 µM in the experiment with RXF 393 renal.
For the molecule `CC1(C)COC(/C=C/C2=NC(C)(C)CO2)=N1`, the TGI in the experiment on PC-3 prostate is 51.7 µM; in the experiment with OVCAR-3 ovarian it was 30.8 µM; with NCI/ADR-RES ovarian, 84 µM; in the experiment on CAKI-1 renal it was 23.4 µM; with MCF7 breast it was 33.1 µM; in the experiment on HCT-15 colon, 34.5 µM. For the same molecule, the TGI is 75.8 µM in the experiment on SF-268 CNS, 59.4 µM in the experiment on NCI-H226 lung, over 100 µM with NCI-H460 lung and 34.5 µM in the experiment on RXF 393 renal.
For `O=C(/C=C/c1ccc(O)cc1)NCCc1ccc(O)cc1`, the TGI with PC-3 prostate, in the experiment on OVCAR-3 ovarian, with NCI/ADR-RES ovarian, in the experiment on CAKI-1 renal, with MCF7 breast and in the experiment on HCT-15 colon was over 12.5 µM each time. Besides, the TGI in the experiment with SF-268 CNS, in the experiment on NCI-H226 lung, in the experiment on NCI-H460 lung and in the experiment with RXF 393 renal was over 12.5 µM each time.
For `C[N+]1(C)CCC(C#N)(c2ccccc2)CC1`, the TGI in the experiment with NCI/ADR-RES ovarian, with CAKI-1 renal, with MCF7 breast, with HCT-15 colon, in the experiment on SF-268 CNS and in the experiment on NCI-H460 lung was over 100 µM each time. This molecule also had a TGI with RXF 393 renal of over 100 µM.
For `CC(O)C(O)C(N)CC=O` (configuration not stated), the TGI with OVCAR-3 ovarian, with NCI/ADR-RES ovarian, with CAKI-1 renal, in the experiment with MCF7 breast, with HCT-15 colon and in the experiment on SF-268 CNS was over 500 µM throughout. Moreover, the TGI in the experiment on NCI-H226 lung, in the experiment on NCI-H460 lung and with RXF 393 renal was over 500 µM in each case.
Turning to `CCOC(=O)n1cncc1CC(NC(=O)Cc1c(C(=O)C=C(C)C)[nH]c2ccccc12)C(=O)OC` (configuration not stated), the TGI with PC-3 prostate was 33.6 µM; in the experiment with OVCAR-3 ovarian, 38.9 µM; in the experiment with NCI/ADR-RES ovarian, over 100 µM; with CAKI-1 renal it was 34.8 µM; with MCF7 breast it was 84.1 µM; in the experiment with HCT-15 colon, 59.6 µM. Besides, the TGI with SF-268 CNS worked out at 37.4 µM; in the experiment with NCI-H226 lung it was 41.3 µM; with NCI-H460 lung it was 58 µM; with RXF 393 renal it was 28.5 µM.
On to `O=C1/C(=C\c2ccc(-c3ccc(Cl)cc3Cl)o2)SC2N=C(COc3ccc(Cl)cc3)NN12` (configuration not stated), for which the TGI in the experiment with PC-3 prostate, in the experiment with OVCAR-3 ovarian, with NCI/ADR-RES ovarian, in the experiment on CAKI-1 renal, with MCF7 breast and in the experiment on HCT-15 colon was over 100 µM throughout. Moreover, the TGI in the experiment on SF-268 CNS was over 100 µM; in the experiment on NCI-H226 lung, over 100 µM; in the experiment with NCI-H460 lung, over 100 µM; in the experiment with RXF 393 renal, 88 µM.
`COC(=O)C1=CC[C@@H]2C(C(=O)O)=CO[C@@H](OC3OC(CO)C(O)C(O)C3O)[C@H]12` (some centres not stated): the TGI in the experiment with OVCAR-3 ovarian was over 300 µM; with NCI/ADR-RES ovarian it was over 300 µM; in the experiment on CAKI-1 renal it was over 300 µM; with MCF7 breast, over 131 µM; with HCT-15 colon, over 300 µM; with SF-268 CNS, over 300 µM. For the same molecule, the TGI in the experiment with NCI-H226 lung, in the experiment on NCI-H460 lung and in the experiment with RXF 393 renal was over 300 µM in each case.
For the molecule `CC(C)C(N=Cc1ccccc1O)C(=O)O` (configuration not stated), the TGI in the experiment on PC-3 prostate, in the experiment on OVCAR-3 ovarian, in the experiment on NCI/ADR-RES ovarian, in the experiment on CAKI-1 renal, with MCF7 breast and in the experiment on HCT-15 colon was over 100 µM throughout. Moreover, the TGI in the experiment with SF-268 CNS, with NCI-H226 lung and in the experiment on NCI-H460 lung was over 100 µM in each case.
`O=S(O)c1cc(Cl)cc(Cl)c1O`: the TGI in the experiment with OVCAR-3 ovarian, with SF-268 CNS, in the experiment on NCI-H460 lung and in the experiment on RXF 393 renal was over 100 µM in each case.
`N#C/C=C1\C=CC(O)C(O)C1OC1OC(CO)C(O)C(O)C1O` (configuration not stated): the TGI in the experiment with PC-3 prostate, in the experiment with OVCAR-3 ovarian, in the experiment with NCI/ADR-RES ovarian, with CAKI-1 renal, in the experiment on MCF7 breast and in the experiment on HCT-15 colon was over 100 µM each time. Besides, the TGI in the experiment on SF-268 CNS, in the experiment with NCI-H460 lung and with RXF 393 renal was over 100 µM each time.
For `CC(=O)OCC1OC(O[C@@H]2c3c(O)c4c(c(O)c3C3=C(NN(c5ccc([N+](=O)[O-])cc5[N+](=O)[O-])[Se]3=O)[C@@]2(C)O)C(=O)c2ccccc2C4=O)C(OC(C)=O)C(OC(C)=O)C1OC(C)=O` (some centres not stated), the TGI was determined as 1.02 µM with PC-3 prostate; 0.336 µM in the experiment with OVCAR-3 ovarian; 3.86 µM with NCI/ADR-RES ovarian; 0.722 µM with CAKI-1 renal; 0.498 µM with MCF7 breast; 0.873 µM in the experiment with HCT-15 colon. For the same molecule, the TGI with SF-268 CNS amounted to 0.555 µM; in the experiment with NCI-H226 lung, 0.947 µM; in the experiment with NCI-H460 lung, 0.72 µM; in the experiment on RXF 393 renal, 3.81 µM.
